Measurements from PubChem BioAssay (NCI).
Where “and” joins values, the source holds several entries; their conditions need not be identical. Identical values can stand only once.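 Interpolation was linear, between the two tested concentrations surrounding the appropriate level; five concentrations were tested over 48 hours in 96-well plates. At the GI50, growth is halved. TGI is the concentration that stops growth completely.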

What was measured:
Experiment in all cases: growth of human tumour cells (NCI), 48 h
TK-10 renal = test system: TK-10 renal
SR leukemia = test system: SR leukemia
A549 NSCLC = test system: A549 NSCLC
LOX IMVI melanoma = test system: LOX IMVI melanoma
SNB-75 CNS = test system: SNB-75 CNS
BT-549 breast = test system: BT-549 breast
NCI-H522 lung = test system: NCI-H522 lung
NCI-H226 lung = test system: NCI-H226 lung
CCRF-CEM leukemia = test system: CCRF-CEM leukemia
HOP-92 NSCLC = test system: HOP-92 NSCLC

SMILES	GI50 (TK-10 renal)	TGI (TK-10 renal)	GI50 (SR leukemia)	TGI (SR leukemia)	GI50 (A549 NSCLC)	TGI (A549 NSCLC)	GI50 (LOX IMVI melanoma)	TGI (LOX IMVI melanoma)	GI50 (SNB-75 CNS)	TGI (SNB-75 CNS)	GI50 (BT-549 breast)	TGI (BT-549 breast)	GI50 (NCI-H522 lung)	TGI (NCI-H522 lung)	GI50 (NCI-H226 lung)	TGI (NCI-H226 lung)	GI50 (CCRF-CEM leukemia)	TGI (CCRF-CEM leukemia)	GI50 (HOP-92 NSCLC)	TGI (HOP-92 NSCLC)
O=C(/C=C/C12c3ccccc3C(c3ccccc31)C1C(=O)N(c3ccc(Cl)cc3)C(=O)C12)c1ccccn1 (centres undefined)	1460 nM	4.87 µM	241 nM	> 100 µM	288 nM	0.989 µM	177 nM	0.358 µM	256 nM	1.05 µM	171 nM	0.365 µM	260 nM	1.01 µM	258 nM	0.878 µM	290 nM	> 100 µM	452 nM	1.11 µM
O=C([O][Hg][c]1ccccc1)c1ccccc1	1600 nM	2.95 µM	382 nM	2.35 µM	12700 nM	40 µM	1380 nM	3.05 µM	1230 nM	3.63 µM	1230 nM	2.64 µM	275 nM	0.754 µM	2410 nM	6.18 µM	324 nM	2.24 µM	1350 nM	2.72 µM
N#Cc1c(NCc2ccccc2)nc(NCc2ccccc2)c(C#N)c1-c1ccc(Cl)cc1	> 50000 nM and 62700 nM	> 100 µM	> 50000 nM and 19700 nM	> 50 µM and 58.5 µM	> 50000 nM and 51500 nM	> 100 µM	> 50000 nM and 29700 nM	> 100 µM	> 50000 nM and 34700 nM	> 100 µM	63600 nM	> 100 µM	31700 nM	> 100 µM	> 50000 nM and 25600 nM	> 50 µM and 81.4 µM	> 50000 nM and 22500 nM	> 50 µM and 49.5 µM	> 50000 nM	> 50 µM
C/C(CCC(=O)O)=N/Nc1ccc([N+](=O)[O-])cc1	> 100000 nM	> 100 µM	9300 nM	> 100 µM	4410 nM	> 100 µM	1840 nM	> 100 µM	> 100000 nM	> 100 µM	42300 nM	> 100 µM	738 nM	> 100 µM	> 100000 nM	> 100 µM	696 nM	> 100 µM	> 100000 nM	> 100 µM
Cc1cc(Cl)nc2ccc(Cc3ccc4nc(Cl)cc(C)c4c3)cc12	–	59.7 µM	–	> 100 µM	–	> 100 µM	–	> 100 µM	–	19.8 µM	–	> 100 µM	–	> 100 µM	–	> 100 µM	–	> 100 µM	–	> 100 µM
Oc1c(C(Nc2ccccn2)c2cccc(Oc3ccccc3)c2)ccc2cccnc12 (centres undefined)	672 nM	14.5 µM	508 nM	> 100 µM	544 nM	20 µM	468 nM	16.7 µM	433 nM	11.4 µM	479 nM	13 µM	492 nM	18.6 µM	1360 nM	9.32 µM	477 nM	> 100 µM	522 nM	23.7 µM
COc1ccc(-c2cc(/C=C3\C(=O)Nc4cc(Cl)ccc43)[nH]n2)cc1	7740 nM	> 100 µM	2440 nM	14.1 µM	5490 nM	> 100 µM	4360 nM	> 100 µM	1780 nM	6.96 µM	7020 nM	62 µM	1880 nM	6.77 µM	13100 nM	98.6 µM	2240 nM	28.9 µM	2330 nM	56.9 µM
COC(=O)c1ccc2nc(-c3cc4ccccc4n3C)n(CCCCOc3cc4c(cc3OC)C(=O)N3CCC[C@H]3C=N4)c2c1	430 nM	3.29 µM	643 nM	> 100 µM	1500 nM	10.3 µM	592 nM	1.74 µM	339 nM	1.35 µM	284 nM	1.13 µM	291 nM	1.1 µM	1230 nM	8.04 µM	2530 nM	> 100 µM	347 nM	2.77 µM
CCN1CCC(CC(=O)Nc2n[nH]c3nnc(-c4cccc(F)c4F)cc23)CC1	> 25000 nM	> 25 µM	> 25000 nM	> 25 µM	> 25000 nM	> 25 µM	> 25000 nM	> 25 µM	–	> 25 µM	> 25000 nM	> 25 µM	> 25000 nM	> 25 µM	22500 nM	> 25 µM	> 25000 nM	> 25 µM	> 25000 nM	> 25 µM
COC1=CC(c2ccc[nH]2)=N/C1=C\c1[nH]c(C)c(C(=O)CCC(=O)Oc2ccc3c(c2)CCC2C3CC[C@]3(C)[C@@H](O)CC[C@@H]23)c1C (some centres undefined)	7680 nM	> 100 µM	643 nM	5.1 µM	2470 nM	9.18 µM	797 nM	2.57 µM	4560 nM	58.4 µM	3510 nM	61.5 µM	1990 nM	6.5 µM	4770 nM	> 100 µM	304 nM	> 100 µM	1450 nM	4.39 µM
CCCCCCC1N=C(N)N=C(N)N1c1cccc(Cl)c1 (centres undefined)	3660 nM	25.9 µM	748 nM	> 42.7 µM	181 nM	> 44.5 µM	91.7 nM	13.2 µM	347 nM	6.75 µM	506 nM	14.5 µM	701 nM	14.1 µM	1750 nM	24.5 µM	442 nM	> 66.8 µM	491 nM	5.94 µM
CNC(=O)c1nn(C)c2c1C(C)(C)Cc1cnc(Nc3cccc(N4CCN(C)CC4)c3)nc1-2	271 nM	24.4 µM	286 nM	7.88 µM	340 nM	13.8 µM	178 nM	2.53 µM	159 nM	1.42 µM	2370 nM	13.7 µM	554 nM	11.1 µM	237 nM	9.96 µM	382 nM	> 26.8 µM	164 nM	1.8 µM
CN1CCN(Cc2ccc(NC(=O)c3cncc(C#Cc4c(N)ncc5ccc(C#N)cc45)c3)cc2C(F)(F)F)CC1	969 nM	1.87 µM	547 nM	2.57 µM	867 nM	1.68 µM	290 nM	1.07 µM	2290 nM	4.54 µM	6460 nM	14.8 µM	748 nM	2.01 µM	294 nM	14.5 µM	1040 nM	3.08 µM	412 nM	6.35 µM
CCc1ccccc1NC(=O)C(C#N)C1=C(Cl)C(=O)c2ccccc2C1=O (centres undefined)	–	33.7 µM	–	> 100 µM	–	54.7 µM	–	26.9 µM	–	35.4 µM	–	71.7 µM	–	29.7 µM	–	30.4 µM	–	> 100 µM	–	> 100 µM
CS(=O)(=O)N1CCC(n2c(=O)c(Oc3ccc(F)cc3F)cc3cnc(NC4CCOCC4)nc32)CC1	19900 nM	> 25 µM	> 25000 nM	> 25 µM	> 25000 nM	> 25 µM	> 25000 nM	> 25 µM	> 25000 nM	> 25 µM	24500 nM	> 25 µM	> 25000 nM	> 25 µM	> 22500 nM	> 25 µM	> 25000 nM	> 25 µM	> 25000 nM	> 25 µM
C[C@@H](N)COc1ccc(-c2cnc3ccc(N[C@H](C)c4cccc(F)c4)nn23)cc1	1750 nM	8.22 µM	71.5 nM	1.8 µM	1530 nM	3.82 µM	1420 nM	2.72 µM	5150 nM	20.6 µM	1680 nM	3.33 µM	1420 nM	3.17 µM	1620 nM	7.31 µM	2680 nM	7.88 µM	338 nM	1.89 µM
